Values of other authors as cited in patent publication EP1131101B1, “KHELLIN PREPARATION AND THE USE THEREOF FOR TOPICAL THERAPY” (priority 1998, dated 2000).

Assays:
[1] = system: Plaque-Psoriasis; details: oral 100 mg Khellin then sun exposure
[2] = animal experiments; UVA phototherapy with Khellin compared with photochemotherapy with 8-MOP
[3] = system: Grünalgen
[4] = system: Bakterien

COc1c2occc2c(OC)c2c(=O)cc(C)oc12 [Khellin, 4,9-Dimethoxy-7-methyl-5H-furo[3,2-g][1] benzopyran-5-on]
auf die Behandlung ansprachen ([1]; 10 patients with plaque psoriasis): 80% | für drei Jahre symptomfrei ([1]; of the responding patients): 6 von 8 | karzinogenes Risiko [2]: deutlich geringeres karzinogenes Risiko | Mutagenität [3]: keine signifikante Mutagenität | Photomutagenität [4]: nur eine geringe Photomutagenität
